Our source for the IC50 values is patent US11873291B2, “Quinoline cGAS antagonist compounds” (ImmuneSensor Therapeutics, Inc., priority 2020, dated 2024).

SMILES strings stand for the structures. Where two headings read alike, the source gives them in different places. Bounds are passed on as bounds.

The target of test [1] is T1, recombinant human cGAS (aa147-522) (Homo sapiens, UniProt Q8N884).
T1 construct: recombinant human cGAS (aa147-522); His6-SUMO (cleaved yes); made in house; host or cells: E. coli BL21/pLys
In words: In vitro inhibition assay of cGAS activity (ATP consumption, KinaseGlo Max). Format: biochemical. The essentials: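 IC50 came from plotting % ATP consumption against log compound concentration, with leftover ATP detected by KinaseGlo Max chemiluminescence. Reactions ran 20 min at 37 °C with 1.5 μg/mL human cGAS (aa147-522), 6.6 μM ATP, 0.1 mM GTP and 0.01 mg/mL DNA at pH 7.5.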
(In general: In Kinase-Glo more light means more ATP remaining.)

Test [2] deals with cGAS activity in Reporter THP1 cell line. Nature of the test: Cellular assay to measure cGAS activity: ISRE-Gaussia luciferase reporter THP1 cells transfected with ISD. Type of test: cell-based. The settings on record: Homo sapiens, THP-1, Table 4, Gaussia luciferase. The essentials:
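THP1 ISRE-Gaussia luciferase reporter cells (0.3×10^6/well) pre-incubated 5 min with compound serial dilutions, then lipofectamine-transfected with 2 μg/mL ISD (45 bp DNA) or mock. Secreted luciferase read 16 h later with 1 μM coelenterazine at pH 6.5; IC50 from fold increase over mock. Specificity counter-screen used 2 μg/mL poly(I:C) or Sendai virus 50 Unit/mL.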
(A reporter such as luciferase makes a cellular process visible.)

Setting [3] is: Table 3, read-out: cGAS Inhibition Results IC50.

T1 sequence (Q8N884 147-522): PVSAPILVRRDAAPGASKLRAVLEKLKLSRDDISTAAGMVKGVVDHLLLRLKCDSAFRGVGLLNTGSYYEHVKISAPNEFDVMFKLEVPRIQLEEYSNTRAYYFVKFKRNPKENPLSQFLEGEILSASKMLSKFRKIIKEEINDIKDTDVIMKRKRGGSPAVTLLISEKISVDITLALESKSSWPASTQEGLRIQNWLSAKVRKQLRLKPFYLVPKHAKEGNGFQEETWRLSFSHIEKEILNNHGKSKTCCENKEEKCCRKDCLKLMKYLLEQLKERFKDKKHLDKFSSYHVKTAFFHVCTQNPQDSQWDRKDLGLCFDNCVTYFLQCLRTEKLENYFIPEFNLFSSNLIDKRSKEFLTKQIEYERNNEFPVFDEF

One may read the IC50 as the point on the concentration scale where inhibition reaches its midpoint. Take `O=C(O)c1cccc(OC[C@@H]2CCCN2c2cc(-n3ccnc3)c3ccc(Cl)c(Cl)c3n2)c1` [I-735, (S)-3-((1-(7,8-dichloro-4-(1H-imidazol-1-yl)quinolin-2-yl)pyrrolidin-2-yl)methoxy)benzoic acid]: the values for the IC50 in test [1] (setting [3]) and in test [2] were less than 2000 nM and 2000 to 10000 nM, respectively.

As for `CN(CCCCCC(=O)O)c1cc(-n2ccnc2)c2ccc(Cl)c(Cl)c2n1` [I-691], the IC50 in test [1] (setting [3]) and in test [2] was less than 2000 nM in each case.

Turning to `COC(=O)CCOC[C@@H]1CN(c2cc(-c3cn[nH]c3)c3ccc(Cl)c(Cl)c3n2)CCO1` [I-752], the IC50 in test [1] (setting [3]) was less than 2000 nM; in test [2], more than 10000 nM.

`COC(=O)[C@@H]1CC2(CC2)CN1c1cc(-n2ccnc2)c2ccc(Cl)c(Cl)c2n1` [I-582]: the IC50 in test [1] (setting [3]) and in test [2] was less than 2000 nM in each case.

With `COc1ccc(-c2cc(-n3ccnc3)c3ccc(Cl)c(Cl)c3n2)cc1C(=O)O` [I-39], the IC50 in test [1] (Table 2, read-out: cGAS Inhibition Results IC50) was less than 2000 nM; in test [2] it was 2000 to 10000 nM.
